From patent US9012647B2, “Nitroxide modified non-steroidal anti-inflammatory compounds and uses thereof in the treatment and prevention of diseases or disorders” (The United States of America, as Represented by the …, priority 2011, dated 2015)
Where two headings read alike, the source gives them in different places.

Experiments:
PGE2 production = experiment: PGE2 ELISA in A549 cells stimulated with arachidonic acid; type: cell-based; settings: Table 1B; for activity at 10 µg/mL / activity at 100 µg/mL: Homo sapiens, A549, read-out: PGE-2 % of control; for activity at 10 µg/mL / activity at 100 µg/mL / PGE-2 % of control: control 42 ± 3 pg ml^−1; for PGE-2: control 42 ± 3, mean ± S.D., n=3
Experimental: PGE2 was measured by enzyme enzyme-linked immunosorbent assay (ELISA) (Cayman Chemical, Ann Arbor, Mich.). […] A549 cells in 24 well plates were treated with the compound for 30 min., then arachidonic acid (20 μg ml^−1) was added at 37° C. for 5 min. The samples were frozen at −80° C. until assayed for PGE2. A 100 μl sample was added to EIA buffer (900 μl). Diluted sample (25 μl) was then added to a 96 well plate. The samples were incubated overnight at 4° C. The plate was then washed 5 times (200 μA) and Edman's reagent was added. The absorbance at 450 nm was determined in an ELISA reader. […] Percents were obtained using the formula: %: sample pg/ml/control pg/ml×100.

[1] = Maximum tolerated dose, IP injection; type: in vivo; settings: nude mice, monitored up to 24 h, death as end point; for MTD at 24 h: female, athymic nude, mouse, in vivo
Experimental: All animal experiments were carried out in compliance with the Guide for the Care and Use of Laboratory Animal Resources (National Research Council, 1996) and were approved by the National Cancer Institute Animal Care and Use Committee. Female athymic nude mice were supplied at 6 weeks of age by the Frederick Cancer Research Center and were housed five per cage in a climate-controlled environment. […] Each animal was weighed individually on the same day as the intraperitoneal (IP) injection. Different dosages were used to determine the maximum tolerated dose to be given to the animals. Each animal was monitored for up to 24 h and death was the end point of the experiment.

LTB4 formation = experiment: Leukotriene B4 ELISA in A549 cells; type: cell-based; settings: for activity at 10 µg/mL / activity at 100 µg/mL: Homo sapiens, A549; for activity at 10 µg/mL / activity at 100 µg/mL / LTB4 / LTB4 % of control: Table 2B; for activity at 10 µg/mL / activity at 100 µg/mL / LTB4 % of control: control 100 ± 1 pg ml^−1; for LTB4: control 100 ± 1, mean ± S.D., n=3; for inhibition of LTB4 formation: at 10 μg ml^−1 or 100 μg ml^−1
Experimental: The A549 cell line was grown in Dulbecco's Modified Eagle Medium (DMEM) also supplemented with 10% heat inactivated fetal bovine serum and penicillin-streptomycin. […] The media was changed twice a week.
PGE2 was measured by enzyme enzyme-linked immunosorbent assay (ELISA) (Cayman Chemical, Ann Arbor, Mich.). (1) or (2) was dissolved in DMSO at a concentration of 10 mg ml^−1 for the in vitro experiments. A549 cells in 24 well plates were treated with the compound for 30 min., then arachidonic acid (20 μg ml^−1) was added at 37° C. for 5 min. The samples were frozen at −80° C. until assayed for PGE2. A 100 μl sample was added to EIA buffer (900 μl). Diluted sample (25 μl) was then added to a 96 well plate. The samples were incubated overnight at 4° C. The plate was then washed 5 times ([…]) and […] was added. The absorbance at 450 nm was determined in an ELISA reader. Tables 1A-1B show the mean value±S.D. of 3 determinations. Percents were obtained using the formula: %: sample pg/ml/control pg/ml×100.
Several recent modified NSAIDs target both prostaglandin as well as leukotriene (Martel-Pelletier et al., Ann. Rheum. Dis., 62:501-09 (2003)). Since nitroxides inhibit lipoxygenase (Rachmilewitz et al., Gut, 35: 1181-88 (1994)), the inhibition of LTB4 in A549 cells by these compounds was evaluated. Leukotriene B4 from A549 cells treated as described above was examined using an ELISA assay kit (Cayman Chemical, Ann Arbor, Mich.; Cat No. 520111) according to the manufacturer's instructions. Tables 2A-2B show the mean value±S.D. of 3 determinations. Percents were obtained using the formula: %: sample pg/ml/control pg/ml×100.

[2] = Carrageenan-induced foot paw edema model; type: in vivo; settings: dose decreasing the inflammatory response by 50%, n = 4
Experimental: The in vivo anti-inflammatory activity was evaluated using the carrageenan-induced foot paw edema model reported previously (Winter et al. Proc. Soc. Exp. Biol. Med., 111: 544-47 (1962)).

[3] = Superoxide scavenging: ferricytochrome c reduction, hypoxanthine/xanthine oxidase; type: biochemical; settings: PBS pH 7.4, 25° C., cyt c 60 μM; read-out: IC50, reduction rate of ferricytochrome c (superoxide scavenging)
Experimental: Superoxide was generated from the reaction of hypoxanthine (500 μM) with xanthine oxidase (10 mU) in PBS (pH 7.4, 25° C.) containing the metal chelator diethylenetriaminepentaacetic acid (DTPA, 50 μM). The rate of superoxide formation was assessed by ferricytochrome c (cyt c) (60 μM) reduction (550 nm, ε=21,000 M^−1 cm^−1), as previously described (Wasserman et al., Biochim. Biophys. Acta, 623: 457-60 (1980)). Different drug doses (5-100 μM) were used to scavenge superoxide by the modified nitroxide-NSAIDs.

[4] = previous reports at pH 7.4; cited from earlier work
[5] = Krishna et al. 1992, cited from earlier work; for oxidation potential Eox: vs. NHE
[6] = Cyclic voltammetry (oxidation potential); type: physicochemical
Experimental: Nitroxides undergo one electron reduction and oxidation, which provides their antioxidant characteristics. Cyclic Voltammetry (CV) measurements of the nitroxide-NSAIDs were taken with an EG Potensiostat/Galvanostat Model 273A, from AMETEK Princeton Applied Research (Oak Ridge, Tenn.). Measurements were performed at room temperature in PBS or 50% organic solvents, using the platinum auxiliary electrode and Ag/AgCl (saturated KCl) reference electrode.

[7] = Hahn et al. 1992; cited from earlier work

SMILES: CC(=O)Oc1ccccc1C(=O)O [ASA, acetyl salicylic acid]
- activity at 10 µg/mL (PGE2 production; dose 10 μg ml^−1): 107%
- activity at 100 µg/mL (PGE2 production; dose 100 μg ml^−1): 23%
- PGE-2 (PGE2 production; dose 10 μg ml^−1): (45 ± 7) pg ml^−1
- PGE-2 (PGE2 production; dose 100 μg ml^−1): (10 ± 2) pg ml^−1
- MTD at 24 h [1]: 100 mg/kg
- activity at 10 µg/mL (LTB4 formation; dose 10 μg ml^−1): 64%
- activity at 100 µg/mL (LTB4 formation; dose 100 μg ml^−1): 62%
- LTB4 (LTB4 formation; dose 10 μg ml^−1): (64 ± 13) pg ml^−1
- LTB4 (LTB4 formation; dose 100 μg ml^−1): (62 ± 5) pg ml^−1
- inhibition of LTB4 formation (LTB4 formation): no inhibition was observed

SMILES: COc1ccc2c(c1)c(CC(=O)O)c(C)n2C(=O)c1ccc(Cl)cc1 [IND, indomethacin]
- activity at 10 µg/mL (PGE2 production; dose 10 μg ml^−1): 50%
- activity at 100 µg/mL (PGE2 production; dose 100 μg ml^−1): 12%
- PGE-2 (PGE2 production; dose 10 μg ml^−1): (21 ± 3) pg ml^−1
- PGE-2 (PGE2 production; dose 100 μg ml^−1): (5 ± 1) pg ml^−1
- MTD at 24 h [1]: 5 mg/kg
- Anti-inflammatory ED50 [2]: 4.2 mg/kg
- activity at 10 µg/mL (LTB4 formation; dose 10 μg ml^−1): 100%
- activity at 100 µg/mL (LTB4 formation; dose 100 μg ml^−1): 82%
- LTB4 (LTB4 formation; dose 10 μg ml^−1): (100 ± 10) pg ml^−1
- LTB4 (LTB4 formation; dose 100 μg ml^−1): (82 ± 9) pg ml^−1
- inhibition of LTB4 formation (LTB4 formation): no inhibition was observed

SMILES: CC1(C)CCCC(C)(C)N1[O] [TEMPO, 2,2,6,6-Tetramethyl-1-piperidinyloxy]
- PGE-2 % of control (PGE2 production; dose 10 μg ml^−1): 133%
- PGE-2 (PGE2 production; dose 10 μg ml^−1): (56 ± 10) pg ml^−1
- PGE-2 % of control (PGE2 production; dose 100 μg ml^−1): 123%
- PGE-2 (PGE2 production; dose 100 μg ml^−1): (52 ± 8) pg ml^−1
- IC50 [3]: ~50 µM
- Maximum Tolerated Dose (MTD) [1]: 140 mg/kg
- rate constant with superoxide [4]: 120000 M⁻¹ s⁻¹
- E1/2 [5]: 197 mV
- oxidation potential Eox [5]: 0.622 V
- oxidation potential Eox ([6]; in acetonitrile, same conditions, vs. NHE): 1.0 V
- LTB4 % of control (LTB4 formation; dose 10 μg ml^−1): 100%
- LTB4 (LTB4 formation; dose 10 μg ml^−1): (100 ± 2) pg ml^−1
- LTB4 % of control (LTB4 formation; dose 100 μg ml^−1): 100%
- LTB4 (LTB4 formation; dose 100 μg ml^−1): (100 ± 1) pg ml^−1
- inhibition of LTB4 formation (LTB4 formation): no inhibition was observed

SMILES: CC1(C)CC(O)CC(C)(C)N1[O] [TEMPOL]
- rate constant with superoxide [4]: 65000 M⁻¹ s⁻¹
- oxidation potential Eox [5]: 0.810 V
- tolerance (maximum tolerated dose) [7]: 275 mg/kg

SMILES: CC(=O)Oc1ccccc1C(=O)OC1CC(C)(C)N([O])C(C)(C)C1 [compound (1), TEMPO-aspirin]
- reversibility of cyclic voltammograph [6]: reversible
- oxidation potential Eox ([6]; in PBS, versus Ag/AgCl): 0.72 V
- oxidation potential Eox ([6]; in PBS, vs NHE): 0.83 V

SMILES: COc1ccc2c(c1)c(CC(=O)OC1CC(C)(C)N([O])C(C)(C)C1)c(C)n2C(=O)c1ccc(Cl)cc1 [compound (2), TEMPO-indomethacin]
- reversibility of cyclic voltammograph [6]: reversible
- oxidation potential Eox ([6]; in acetonitrile (100 mM tetrabutylammonium chloride), versus Ag/AgCl): 1.312 V
